From patent US6525001B1, “Substituted pyrimidine and pyridine herbicides” (Mid-American Commercialization Corporation, priority 1997, dated 2003)

Key:
Assay in all cases: Test B pre-/postemergence
Format in all cases: in vivo
Set-up in all cases: key: 0 is no effect; 10 is complete control
[1] = system: pigweed (Amaranthus retroflexus)
In short: (§1)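 Response scores run from 0, meaning no effect, to 10, meaning complete control, assigned by eye relative to controls twelve to sixteen days after spraying. Treatment was both preemergence on planted seed and postemergence on plants at the 1- to 4-leaf stage.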

[2] = system: crabgrass (Digitaria sanguinalis)
In short: as §1

[3] = system: sugar beet (Beta vulgaris)
In short: as §1

[4] = system: bedstraw (Galium aparine)
In short: as §1

rape (Brassica napus) = system: rape (Brassica napus)
In short: as §1

corn (Zea mays) = system: corn (Zea mays)
In short: as §1

soybean (Glycine max) = system: soybean (Glycine max)
In short: as §1

[5] = system: broadleaf signalgrass (Brachiaria decumbens)
In short: as §1

[6] = system: giant foxtail (Setaria faberii)
In short: as §1

[7] = system: momingglory (Ipomoea hederacea)
In short: as §1

[8] = system: purple nutsedge (Cyperus rotundus)
In short: as §1

[9] = system: cocklebur (Xanthium strumarium)
In short: as §1

[10] = system: velvetleaf (Abutilon theophrasti)
In short: as §1

[11] = system: wheat (Triticum aestivum)
In short: as §1

[12] = Preemergence, Rate 62 g/ha, scale of 0 to 10

Cc1cnc(-n2ccc(C(F)(F)F)n2)nc1C(=O)c1ccc(C(F)(F)F)cc1 [Compound 65]
Plant response rating, Redroot pigweed [1, 12]: 0 | Redroot pigweed plant response rating ([1]; Rate 62 g/ha, Postemergence): 2 | Redroot pigweed plant response rating ([1]; Rate 125 g/ha, Postemergence): 3 | Plant response rating, Redroot pigweed ([1]; Rate 125 g/ha, Preemergence): 0 | Plant response rating, Redroot pigweed ([1]; Rate 250 g/ha, Postemergence): 6 | Plant response rating, Redroot pigweed ([1]; Rate 250 g/ha, Preemergence): 0 | Plant response rating, Redroot pigweed ([1]; Rate 500 g/ha, Postemergence): 7 | Plant response rating, Redroot pigweed ([1]; Rate 500 g/ha, Preemergence): 0 | Plant response rating, Crabgrass [2, 12]: 0 | Crabgrass plant response rating ([2]; Rate 62 g/ha, Postemergence): 1 | Crabgrass plant response rating ([2]; Rate 125 g/ha, Postemergence): 1 | Plant response rating, Crabgrass ([2]; Rate 125 g/ha, Preemergence): 0 | Plant response rating, Crabgrass ([2]; Rate 250 g/ha, Postemergence): 1 | Plant response rating, Crabgrass ([2]; Rate 250 g/ha, Preemergence): 0 | Plant response rating, Crabgrass ([2]; Rate 500 g/ha, Postemergence): 1 | Plant response rating, Crabgrass ([2]; Rate 500 g/ha, Preemergence): 0 | Plant response rating, Sugarbeets [3, 12]: 0 | Sugarbeets plant response rating ([3]; Rate 62 g/ha, Postemergence): 7 | Sugarbeets plant response rating ([3]; Rate 125 g/ha, Postemergence): 7 | Plant response rating, Sugarbeets ([3]; Rate 125 g/ha, Preemergence): 0 | Plant response rating, Sugarbeets ([3]; Rate 250 g/ha, Postemergence): 8 | Plant response rating, Sugarbeets ([3]; Rate 250 g/ha, Preemergence): 0 | Plant response rating, Sugarbeets ([3]; Rate 500 g/ha, Postemergence): 8 | Plant response rating, Sugarbeets ([3]; Rate 500 g/ha, Preemergence): 0 | Plant response rating, Bedstraw [4, 12]: 0 | Bedstraw plant response rating ([4]; Rate 62 g/ha, Postemergence): 0 | Bedstraw plant response rating ([4]; Rate 125 g/ha, Postemergence): 3 | Plant response rating, Bedstraw ([4]; Rate 125 g/ha, Preemergence): 0 | Plant response rating, Bedstraw ([4]; Rate 250 g/ha, Postemergence): 7 | Plant response rating, Bedstraw ([4]; Rate 250 g/ha, Preemergence): 0 | Plant response rating, Bedstraw ([4]; Rate 500 g/ha, Postemergence): 7 | Plant response rating, Bedstraw ([4]; Rate 500 g/ha, Preemergence): 0 | Plant response rating, Rape (rape (Brassica napus); [12]): 0 | Rape plant response rating (rape (Brassica napus); Rate 62 g/ha, Postemergence): 1 | Rape plant response rating (rape (Brassica napus); Rate 125 g/ha, Postemergence): 1 | Plant response rating, Rape (rape (Brassica napus); Rate 125 g/ha, Preemergence): 0 | Plant response rating, Rape (rape (Brassica napus); Rate 250 g/ha, Postemergence): 2 | Plant response rating, Rape (rape (Brassica napus); Rate 250 g/ha, Preemergence): 0 | Plant response rating, Rape (rape (Brassica napus); Rate 500 g/ha, Postemergence): 2 | Plant response rating, Rape (rape (Brassica napus); Rate 500 g/ha, Preemergence): 0 | Plant response rating, Corn (corn (Zea mays); [12]): 0 | Corn plant response rating (corn (Zea mays); Rate 62 g/ha, Postemergence): 1 | Corn plant response rating (corn (Zea mays); Rate 125 g/ha, Postemergence): 1 | Plant response rating, Corn (corn (Zea mays); Rate 125 g/ha, Preemergence): 0 | Plant response rating, Corn (corn (Zea mays); Rate 250 g/ha, Postemergence): 1 | Plant response rating, Corn (corn (Zea mays); Rate 250 g/ha, Preemergence): 0 | Plant response rating, Corn (corn (Zea mays); Rate 500 g/ha, Postemergence): 1 | Plant response rating, Corn (corn (Zea mays); Rate 500 g/ha, Preemergence): 0 | Plant response rating, Soybean (soybean (Glycine max); [12]): 0 | Soybean plant response rating (soybean (Glycine max); Rate 62 g/ha, Postemergence): 1 | Soybean plant response rating (soybean (Glycine max); Rate 125 g/ha, Postemergence): 2 | Plant response rating, Soybean (soybean (Glycine max); Rate 125 g/ha, Preemergence): 0 | Plant response rating, Soybean (soybean (Glycine max); Rate 250 g/ha, Postemergence): 2 | Plant response rating, Soybean (soybean (Glycine max); Rate 250 g/ha, Preemergence): 0 | Plant response rating, Soybean (soybean (Glycine max); Rate 500 g/ha, Postemergence): 2 | Plant response rating, Soybean (soybean (Glycine max); Rate 500 g/ha, Preemergence): 0 | B. signalgrass plant response rating ([5]; Rate 62 g/ha, Postemergence): 1 | B. signalgrass plant response rating ([5]; Rate 62 g/ha, Preemergence): 0 | B. signalgrass plant response rating ([5]; Rate 125 g/ha, Postemergence): 1 | Plant response rating, B. signalgrass ([5]; Rate 125 g/ha, Preemergence): 0 | Plant response rating, B. signalgrass ([5]; Rate 250 g/ha, Postemergence): 1 | Plant response rating, B. signalgrass ([5]; Rate 250 g/ha, Preemergence): 1 | Plant response rating, B. signalgrass ([5]; Rate 500 g/ha, Postemergence): 1 | Plant response rating, B. signalgrass ([5]; Rate 500 g/ha, Preemergence): 2 | Plant response rating, Giant foxtail [6, 12]: 0 | Giant foxtail plant response rating ([6]; Rate 62 g/ha, Postemergence): 1 | Giant foxtail plant response rating ([6]; Rate 125 g/ha, Postemergence): 1 | Plant response rating, Giant foxtail ([6]; Rate 125 g/ha, Preemergence): 0 | Plant response rating, Giant foxtail ([6]; Rate 250 g/ha, Postemergence): 1 | Plant response rating, Giant foxtail ([6]; Rate 250 g/ha, Preemergence): 0 | Plant response rating, Giant foxtail ([6]; Rate 500 g/ha, Postemergence): 1 | Plant response rating, Giant foxtail ([6]; Rate 500 g/ha, Preemergence): 0 | Plant response rating, Morningglory [7, 12]: 0 | Morningglory plant response rating ([7]; Rate 125 g/ha, Postemergence): 1 | Plant response rating, Morningglory ([7]; Rate 125 g/ha, Preemergence): 0 | Plant response rating, Morningglory ([7]; Rate 250 g/ha, Postemergence): 8 | Plant response rating, Morningglory ([7]; Rate 250 g/ha, Preemergence): 0 | Plant response rating, Morningglory ([7]; Rate 500 g/ha, Postemergence): 10 | Plant response rating, Morningglory ([7]; Rate 500 g/ha, Preemergence): 5 | Plant response rating, Nutsedge [8, 12]: 0 | Nutsedge plant response rating ([8]; Rate 62 g/ha, Postemergence): 0 | Nutsedge plant response rating ([8]; Rate 125 g/ha, Postemergence): 0 | Plant response rating, Nutsedge ([8]; Rate 125 g/ha, Preemergence): 0 | Plant response rating, Nutsedge ([8]; Rate 250 g/ha, Postemergence): 0 | Plant response rating, Nutsedge ([8]; Rate 250 g/ha, Preemergence): 0 | Plant response rating, Nutsedge ([8]; Rate 500 g/ha, Preemergence): 0 | Plant response rating, Cocklebur [9, 12]: 0 | Cocklebur plant response rating ([9]; Rate 62 g/ha, Postemergence): 1 | Cocklebur plant response rating ([9]; Rate 125 g/ha, Postemergence): 1 | Plant response rating, Cocklebur ([9]; Rate 125 g/ha, Preemergence): 0 | Plant response rating, Cocklebur ([9]; Rate 250 g/ha, Postemergence): 1 | Plant response rating, Cocklebur ([9]; Rate 250 g/ha, Preemergence): 0 | Plant response rating, Cocklebur ([9]; Rate 500 g/ha, Postemergence): 2 | Plant response rating, Cocklebur ([9]; Rate 500 g/ha, Preemergence): 0 | Plant response rating, Velvetleaf [10, 12]: 0 | Velvetleaf plant response rating ([10]; Rate 62 g/ha, Postemergence): 1 | Velvetleaf plant response rating ([10]; Rate 125 g/ha, Postemergence): 1 | Plant response rating, Velvetleaf ([10]; Rate 125 g/ha, Preemergence): 0 | Plant response rating, Velvetleaf ([10]; Rate 250 g/ha, Postemergence): 2 | Plant response rating, Velvetleaf ([10]; Rate 250 g/ha, Preemergence): 0 | Plant response rating, Velvetleaf ([10]; Rate 500 g/ha, Postemergence): 2 | Plant response rating, Velvetleaf ([10]; Rate 500 g/ha, Preemergence): 1 | Plant response rating, Wheat [11, 12]: 0 | Wheat plant response rating ([11]; Rate 62 g/ha, Postemergence): 1 | Wheat plant response rating ([11]; Rate 125 g/ha, Postemergence): 1 | Plant response rating, Wheat ([11]; Rate 125 g/ha, Preemergence): 0 | Plant response rating, Wheat ([11]; Rate 250 g/ha, Postemergence): 2 | Plant response rating, Wheat ([11]; Rate 250 g/ha, Preemergence): 0 | Plant response rating, Wheat ([11]; Rate 500 g/ha, Postemergence): 2 | Plant response rating, Wheat ([11]; Rate 500 g/ha, Preemergence): 0
